Reference: patent US5523315A, “N-(hydroxyethyl)butanediamide derivatives” (Bio-Mega/Boehringer Ingelheim Research Inc., priority 1993, dated 1996)

molecular target: T1, human renin (Homo sapiens, UniProt P00797); experiment: plasma renin assay (inhibition of human renin; angiotensin I generated, measured by radioimmunoassay); assay type: biochemical; settings: human plasma pool, pH 6.0, 2 h incubation at 37°
T1 construct: A human plasma pool is used as the source of both the substrate (angiotensinogen) and the enzyme (renin); from tissue; host or cells: pooled human plasma
T1 sequence (P00797 67-406): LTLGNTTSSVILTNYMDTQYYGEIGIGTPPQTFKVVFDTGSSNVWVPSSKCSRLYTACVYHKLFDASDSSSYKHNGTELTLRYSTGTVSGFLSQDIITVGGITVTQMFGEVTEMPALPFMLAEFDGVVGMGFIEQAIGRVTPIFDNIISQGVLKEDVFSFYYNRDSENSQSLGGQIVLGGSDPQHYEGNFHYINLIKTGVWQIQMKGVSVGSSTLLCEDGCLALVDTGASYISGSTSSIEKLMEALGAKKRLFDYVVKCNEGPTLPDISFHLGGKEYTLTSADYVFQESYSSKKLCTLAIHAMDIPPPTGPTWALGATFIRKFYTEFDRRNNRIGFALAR
Protocol: The assay is performed as follows: The test compound (i.e. the inhibitor) is dissolved in dimethylsulfoxide (1 mM stock solution) and diluted with an aqueous buffer solution of 270 mM 2-(N-morpholino)ethanesulfonic acid and 1% human serum albumin (pH 5.85, also containing dimercaprol and 8-hydroxyquinoline sulfate in accordance with the instructions of the RIA kit noted below) to give an assay mixture in which the final dimethylsulfoxide content is 1% (v/v).
A human plasma pool is used as the source of both the substrate (angiotensinogen) and the enzyme (renin). The reaction is initiated by the addition of 50 μL of human plasma pool to 50 μL of various concentrations of inhibitor in the 1% dimethylsulfoxide assay buffer. The plasma renin activity is measured by the amount of angiotensin I generated at pH 6.0 following a 2 h incubation at 37°.
Quantitation of angiotensin I is performed by radioimmunoassay (RIA kit from New England Nuclear-Dupont, Mississauga, ON, Canada). The enzymatic activity of renin is expressed in ng of angiotensin I generated (/mL/2 h). The extent of inhibition of the reaction is determined from the amount of angiotensin I generated in reference to a control prepared without inhibitor. Nonlinear regression analysis is used to calculate the IC50 values, i.e. the molar concentration of the test compound required to cause a 50% inhibition of the enzyme activity.

Row | SMILES | IC50 [nM]
1 | CC(C)C[C@H](O)[C@H](O)[C@H](CC1CCCCC1)NC(=O)[C@@H](CC(=O)N(CC(=O)N(C)C)CC1(O)CCCCC1)Cc1csc(N)n1 [Compound 46, N^4-[2-(dimethylamino)-2-oxoethyl]-N^4-[(1-hydroxycyclohexyl)methyl]-N^1-[1(S)-(cyclohexylmethyl)-2(R),3(S)-dihydroxy-5-methylhexyl]-2(R)-[(2-amino-4-thiazolyl)methyl]butanediamide] | 1.3
2 | CC(C)C[C@H](O)[C@H](O)[C@H](CC1CCCCC1)NC(=O)[C@@H](CC(=O)N(CC(=O)N(C)C)CC1(O)CCCCC1)Cc1cccnc1 [Compound 52, N^4-[(1-hydroxycyclohexyl)methyl]-N^4-[2-(dimethylamino)-2-oxoethyl]-N^1-[1(S)-(cyclohexylmethyl)-2(R),3(S)-dihydroxy-5-methylhexyl]-2(R)-(3-pyridinylmethyl)butanediamide] | 33
3 | CC(C)C[C@H](O)[C@H](O)[C@H](CC1CCCCC1)NC(=O)[C@@H](CC(=O)NCC1(O)CCCCC1)CC1CC1 [Compound 17, N^4-[(1-hydroxycyclohexyl)methyl]-N^1-[1(S)-(cyclohexylmethyl)-2(R),3(S)-dihydroxy-5-methylhexyl]-2(R)-(cyclopropylmethyl)butanediamide] | 94
4 | CC(C)C[C@H](O)[C@H](O)[C@H](CC1CCCCC1)NC(=O)[C@@H](CC(=O)N(Cc1ccccn1)CC1(O)CCC(=O)CC1)CC1CC1 [Compound 19, N^4-[(1-hydroxy-4-oxocyclohexyl)methyl]-N^4-(2-pyridinylmethyl)-N^1-[1(S)-(cyclohexylmethyl)-2(R),3(S)-dihydroxy-5-methylhexyl]-2(R)-(cyclopropylmethyl)butanediamide] | 100
5 | CC(C)C[C@H](O)[C@H](O)[C@H](CC1CCCCC1)NC(=O)[C@@H](CC(=O)N(Cc1ccccn1)CC1(O)CCCCC1)CC1CC1 [Compound 4, N^4-[(1-hydroxycyclohexyl)methyl]-N^4-(2-pyridinylmethyl)-N^1-[1(S)-(cyclohexylmethyl)-2(R),3(S)-dihydroxy-5-methylhexyl]-2(R)-(cyclopropylmethyl)butanediamide] | 36
6 | CC(=O)CN(CC1CCCCC1)C(=O)C[C@@H](Cc1cscn1)C(=O)N[C@@H](CC1CCCCC1)[C@@H](O)[C@@H](O)CC(C)C [Compound 60, N^4-(cyclohexylmethyl)-N^4-(2-oxopropyl)-N^1-[1(S)-(cyclohexylmethyl)-2(R),3(S)-dihydroxy-5-methylhexyl]-2(R)-(4-thiazolylmethyl)butanediamide] | 2
7 | CC(C)C[C@H](O)[C@H](O)[C@H](CC1CCCCC1)NC(=O)[C@@H](CC(=O)N(CC1CCCCCC1)CC(C)(C)O)Cc1cscn1 [Compound 51, N^4-(cycloheptylmethyl)-N^4-(2-hydroxy-2-methylpropyl)-N^1-[1(S)-(cyclohexylmethyl)-2(R),3(S)-dihydroxy-5-methylhexyl]-2(R)-(4-thiazolylmethyl)butanediamide] | 5
8 | CC(C)C[C@H](O)[C@H](O)[C@H](CC1CCCCC1)NC(=O)[C@@H](CC(=O)N(CC(=O)N(C)C)CC1(O)CCCCCCC1)Cc1csc(N)n1 [Compound 56, N^4-[(1-hydroxycyclooctyl)methyl]-N^4-[2-(dimethylamino)-2-oxoethyl]-N^1-[1(S)-(cyclohexylmethyl)-2(R),3(S)-dihydroxy-5-methylhexyl]-2(R)-[(2-amino-4-thiazolyl)methyl]butanediamide] | 1
9 | CC(C)C[C@H](O)[C@H](O)[C@H](CC1CCCCC1)NC(=O)[C@@H](CC(=O)N[C@@H](CO)CC1CCCCC1)Cc1cscn1 [Compound 45] | 37
10 | CC(C)C[C@H](O)[C@H](O)[C@H](CC1CCCCC1)NC(=O)[C@@H](CC(=O)N(Cc1ccncc1)CC1(O)CCCCC1)CC1CC1 [Compound 29] | 31
11 | CC(C)C[C@H](O)[C@H](O)[C@H](CC1CCCCC1)NC(=O)[C@@H](CC(=O)N(Cc1ccccc1)CC(C)(C)O)CC1CC1 [Compound 21, N^4-benzyl-N^4-(2-hydroxy-2-methylpropyl)-N^1-[1(S)-(cyclohexylmethyl)-2(R),3(S)-dihydroxy-5-methylhexyl]-2(R)-(cyclopropylmethyl)butanediamide] | 130
12 | CC(C)C[C@H](O)[C@H](O)[C@H](CC1CCCCC1)NC(=O)[C@@H](CC(=O)N(CCO)CC1(O)CCCCC1)CC1CC1 [Compound 5, N^4-[(1-hydroxycyclohexyl)methyl]-N^4-(2-hydroxyethyl)-N^1-[1(S)-(cyclohexylmethyl)-2(R),3(S)-dihydroxy-5-methylhexyl]-2(R)-(cyclopropylmethyl)butanediamide] | 35
13 | CC(C)C[C@H](O)[C@H](O)[C@H](CC1CCCCC1)NC(=O)[C@@H](CC(=O)N(CC1CCCCC1)CC(C)(C)O)Cc1c[nH]cn1 [Compound 43, N^4-(cyclohexylmethyl)-N^4-(2-hydroxy-2-methylpropyl)-N^1-[1(S)-(cyclohexylmethyl)-2(R),3(S)-dihydroxy-5-methylhexyl]-2(R)-(1H-imidazol-4-ylmethyl)butanediamide] | 14
14 | CC(C)C[C@H](O)[C@H](O)[C@H](CC1CCCCC1)NC(=O)[C@@H](CC(=O)N(CC(=O)N(C)C)CC(O)c1ccccc1)Cc1cscn1 (mixture of isomers) [Compound 44, N^4-[2-(dimethylamino)-2-oxoethyl]-N^4-[2(R,S)-hydroxy-2-phenylethyl]-N^1-[1(S)-(cyclohexylmethyl)-2(R),3(S)-dihydroxy-5-methylhexyl]-2(R)-(4-thiazolylmethyl)butanediamide] | 10
15 | CC(C)C[C@H](O)[C@H](O)[C@H](CC1CCCCC1)NC(=O)[C@@H](CC(=O)N(Cc1ncc[nH]1)CC1(O)CCCCC1)CC1CC1 [Compound 15, N^4-[(1-hydroxycyclohexyl)methyl]-N^4-(1H-imidazol-2-ylmethyl)-N^1-[1(S)-(cyclohexylmethyl)-2(R),3(S)-dihydroxy-5-methylhexyl]-2(R)-(cyclopropylmethyl)butanediamide] | 80
16 | CC(C)C[C@H](O)[C@H](O)[C@H](CC1CCCCC1)NC(=O)[C@@H](CC(=O)N(CC1CCCCC1)CC(C)(C)O)CC1CC1 [Compound 32, N^4-(cyclohexylmethyl)-N^4-(2-hydroxy-2-methylpropyl)-N^1-[1(S)-(cyclohexylmethyl)-2(R),3(S)-dihydroxy-5-methylhexyl]-2(R)-(cyclopropylmethyl)butanediamide] | 46
17 | CC(C)C[C@H](O)[C@H](O)[C@H](CC1CCCCC1)NC(=O)[C@@H](CC(=O)N(Cc1ccccc1)CC(O)c1ccccc1)CC1CC1 (stereo partly drawn) [Compound 12, N^4-benzyl-N^4-(R,S)-(2-hydroxy-2-phenylethyl)-N^1-[1(S)-(cyclohexylmethyl)-2(R),3(S)-dihydroxy-5-methylhexyl]-2(R)-(cyclopropylmethyl)butanediamide] | 71
18 | CCC(CC)CN(CC(C)(C)O)C(=O)C[C@@H](Cc1csc(N)n1)C(=O)N[C@@H](CC1CCCCC1)[C@@H](O)[C@@H](O)CC(C)C [Compound 58, N^4-(2-ethylbutyl)-N^4-(2-hydroxy-2-methylpropyl)-N^1-[1(S)-(cyclohexylmethyl)-2(R),3(S)-dihydroxy-5-methylhexyl]-2(R)-[(2-amino-4-thiazolyl)methyl]butanediamide] | 15
